Patent US20070128217A1 (priority 2003, published 2007)

What was measured:
[1] = tested on: antibodies in sera from SARS patients (sera 1a, 1b, 2, 6, 37, 62, London, SARS-yellow, SARS-green); format: binding, human; parameters: Binding of serum 6 to linear peptides of protein X1 of SARS-CoV Urbani / Binding of serum 37 to linear peptides of protein X1 of SARS-CoV Urbani / Binding of serum 6 to looped/cyclic peptide (PEPSCAN-ELISA) / Binding of serum 37 to looped/cyclic peptide (PEPSCAN-ELISA) / Binding of serum 37 to looped/cyclic peptides of protein X1 of SARS-CoV Urbani / Binding of serum 6 to linear peptides of protein X2 / Binding of serum 37 to linear peptides of protein X2 / Binding of serum 37 to looped/cyclic peptides of protein X2 of SARS-CoV Urbani / Binding of serum 6 to linear peptides of protein M of SARS-CoV Urbani / Binding of serum 37 to linear peptides of protein M of SARS-CoV Urbani / Binding of serum 6 to looped/cyclic peptides of protein M of SARS-CoV Urbani / Binding of serum 37 to looped/cyclic peptides of protein M of SARS-CoV Urbani / Binding of serum 6 to linear peptides of protein X3 of SARS-CoV Urbani / Binding of serum 37 to linear peptides of protein X3 of SARS-CoV Urbani / Binding of serum 37 to looped/cyclic peptides of protein X3 of SARS-CoV Urbani / Binding of serum 6 to linear peptides of protein X4 of SARS-CoV Urbani / Binding of serum 37 to linear peptides of protein X4 of SARS-CoV Urbani / Binding of serum 37 to looped/cyclic peptides of protein X4 of SARS-CoV Urbani / Binding of serum 6 to linear peptides of protein X5 of SARS-CoV Urbani / Binding of serum 37 to linear peptides of protein X5 of SARS-CoV Urbani / Binding of serum 37 to looped/cyclic peptides of protein X5 of SARS-CoV Urbani / Binding of serum 6 to linear peptides of protein N of SARS-CoV Urbani / Binding of serum 37 to linear peptides of protein N of SARS-CoV Urbani / Binding of serum 6 to linear peptide (PEPSCAN-ELISA) / Binding of serum 1a to looped/cyclic peptides of protein N of SARS-CoV Urbani / Binding of serum 1b to looped/cyclic peptides of protein N of SARS-CoV Urbani / Binding of serum 2 to looped/cyclic peptides of protein N of SARS-CoV Urbani / Binding of serum 6 to looped/cyclic peptides of protein N of SARS-CoV Urbani / Binding of serum 37 to looped/cyclic peptides of protein N of SARS-CoV Urbani / Binding of serum 62 to looped/cyclic peptides of protein N of SARS-CoV Urbani / Binding of serum London to looped/cyclic peptides of protein N of SARS-CoV Urbani / Binding of serum SARS-green to looped/cyclic peptides of protein N of SARS-CoV Urbani: unit not given here
[2] = tested on: control sera (pooled serum of ten healthy LUMC hospital workers; commercial negative donor pooled serum from the Dutch bloodbank); format: binding, human; parameters: Binding of Control serum LUMC to linear peptides / Binding of Control serum Blood-bank to linear peptides / Binding of Control serum LUMC to looped peptides / Binding of Control Serum Blood-Bank to Looped peptides / Binding of Control serum LUMC to linear peptides of the protein M of SARS-CoV Urbani / Binding of Control serum Blood-bank to linear peptides of the protein M of SARS-CoV Urbani / Binding of Control serum LUMC to looped peptides of the protein M of SARS-CoV Urbani / Binding of Control Serum Blood-Bank to Looped peptides of the protein M of SARS-CoV Urbani: unit not given here
[3] = tested on: rabbit serum obtained by immunizing a rabbit with the SARS-CoV strain Frankfurt 1; format: binding; parameters: Binding of a rabbit serum to linear peptides / Binding of a rabbit serum to looped peptides / Rabbit serum linear peptides / Rabbit serum looped peptides / Binding of a rabbit serum to linear peptides of protein N of SARS-CoV Urbani (Rabbit serum linear peptides) / Binding of a rabbit serum to looped/cyclic peptides of protein N of SARS-CoV Urbani (Rabbit serum looped peptides): unit not given here

IGFLFLAWIMLLQFA
Binding of serum 1a to linear peptides of protein M of SARS-CoV Urbani [1]: 0.7 | Binding of serum 1a to looped/cyclic peptides of protein M of SARS-CoV Urbani [1]: 0.8 | Binding of serum 1b to linear peptides of protein M of SARS-CoV Urbani [1]: 0.6 | Binding of serum 1b to looped/cyclic peptides of protein M of SARS-CoV Urbani [1]: 0.7 | Binding of serum 2 to linear peptides of protein M of SARS-CoV Urbani [1]: 0.5 | Binding of serum 2 to looped/cyclic peptides of protein M of SARS-CoV Urbani [1]: 0.6 | Binding of serum 6 to linear peptides of protein M of SARS-CoV Urbani [1]: 0.9 | Binding of serum 6 to looped/cyclic peptides of protein M of SARS-CoV Urbani [1]: 0.9 | Binding of serum 37 to linear peptides of protein M of SARS-CoV Urbani [1]: 0.4 | Binding of serum 37 to looped/cyclic peptides of protein M of SARS-CoV Urbani [1]: 0.7 | Binding of serum 62 to linear peptides of protein M of SARS-CoV Urbani [1]: 0.5 | Binding of serum 62 to looped/cyclic peptides of protein M of SARS-CoV Urbani [1]: 0.8 | Binding of serum London to linear peptides of protein M of SARS-CoV Urbani [1]: 0.6 | Binding of serum London to looped/cyclic peptides of protein M of SARS-CoV Urbani [1]: 0.3 | Binding of serum SARS-green to linear peptides of protein M of SARS-CoV Urbani [1]: 0.5 | Binding of serum SARS-green to looped/cyclic peptides of protein M of SARS-CoV Urbani [1]: 0.3 | Binding of serum SARS-yellow to linear peptides of protein M of SARS-CoV Urbani [1]: 0.2 | Binding of serum SARS-yellow to looped/cyclic peptides of protein M of SARS-CoV Urbani [1]: 0.5 | Binding of Control Serum Blood-Bank to Looped peptides of the protein M of SARS-CoV Urbani [2]: 0.7 | Binding of Control serum Blood-bank to linear peptides of the protein M of SARS-CoV Urbani [2]: 0.7 | Binding of Control serum LUMC to linear peptides of the protein M of SARS-CoV Urbani [2]: 0.7 | Binding of Control serum LUMC to looped peptides of the protein M of SARS-CoV Urbani [2]: 0.8 | Rabbit serum linear peptides [3]: 0.2 | Rabbit serum looped peptides [3]: 0.3

IIMRCWLCWKCKSKN
Binding of serum 1a to looped/cyclic peptide (PEPSCAN-ELISA) [1]: 0.5 | Binding of serum 1b to looped/cyclic peptide (PEPSCAN-ELISA) [1]: 0.3 | Binding of serum 2 to looped/cyclic peptide (PEPSCAN-ELISA) [1]: 0.3 | Binding of serum 6 to looped/cyclic peptide (PEPSCAN-ELISA) [1]: 0.5 | Binding of serum 37 to looped/cyclic peptide (PEPSCAN-ELISA) [1]: 0.4 | Binding of serum 62 to looped/cyclic peptide (PEPSCAN-ELISA) [1]: 0.5 | Binding of serum London to looped/cyclic peptide (PEPSCAN-ELISA) [1]: 0.2 | Binding of serum SARS-green to looped/cyclic peptide (PEPSCAN-ELISA) [1]: 0.2 | Binding of serum SARS-yellow to looped/cyclic peptide (PEPSCAN-ELISA) [1]: 0.3 | Recognition of the peptide by sera of SARS-CoV infected individuals, and form (linear, looped/cyclic) in which it is recognized [1]: recognized in linear form | Binding of Control Serum Blood-Bank to Looped peptides [2]: 0.6 | Binding of Control serum Blood-bank to linear peptides [2]: 0.5 | Binding of Control serum LUMC to linear peptides [2]: 0.4 | Binding of Control serum LUMC to looped peptides [2]: 0.6 | Binding of a rabbit serum to linear peptides [3]: 0.2 | Binding of a rabbit serum to looped peptides [3]: 0.7

IKDLPKEITVATSRT
Binding of serum 1a to linear peptides of protein M of SARS-CoV Urbani [1]: 0.7 | Binding of serum 1a to looped/cyclic peptides of protein M of SARS-CoV Urbani [1]: 0.4 | Binding of serum 1b to linear peptides of protein M of SARS-CoV Urbani [1]: 0.5 | Binding of serum 1b to looped/cyclic peptides of protein M of SARS-CoV Urbani [1]: 0.4 | Binding of serum 2 to linear peptides of protein M of SARS-CoV Urbani [1]: 0.6 | Binding of serum 2 to looped/cyclic peptides of protein M of SARS-CoV Urbani [1]: 0.5 | Binding of serum 6 to linear peptides of protein M of SARS-CoV Urbani [1]: 0.3 | Binding of serum 6 to looped/cyclic peptides of protein M of SARS-CoV Urbani [1]: 0.4 | Binding of serum 37 to linear peptides of protein M of SARS-CoV Urbani [1]: 0.8 | Binding of serum 37 to looped/cyclic peptides of protein M of SARS-CoV Urbani [1]: 0.6 | Binding of serum 62 to linear peptides of protein M of SARS-CoV Urbani [1]: 0.8 | Binding of serum 62 to looped/cyclic peptides of protein M of SARS-CoV Urbani [1]: 0.6 | Binding of serum London to linear peptides of protein M of SARS-CoV Urbani [1]: 0.3 | Binding of serum London to looped/cyclic peptides of protein M of SARS-CoV Urbani [1]: 0.2 | Binding of serum SARS-green to linear peptides of protein M of SARS-CoV Urbani [1]: 0.2 | Binding of serum SARS-green to looped/cyclic peptides of protein M of SARS-CoV Urbani [1]: 0.3 | Binding of serum SARS-yellow to linear peptides of protein M of SARS-CoV Urbani [1]: 0.0 | Binding of serum SARS-yellow to looped/cyclic peptides of protein M of SARS-CoV Urbani [1]: 0.9 | Binding of Control Serum Blood-Bank to Looped peptides of the protein M of SARS-CoV Urbani [2]: 0.5 | Binding of Control serum Blood-bank to linear peptides of the protein M of SARS-CoV Urbani [2]: 0.6 | Binding of Control serum LUMC to linear peptides of the protein M of SARS-CoV Urbani [2]: 0.4 | Binding of Control serum LUMC to looped peptides of the protein M of SARS-CoV Urbani [2]: 0.7 | Rabbit serum linear peptides [3]: 0.3 | Rabbit serum looped peptides [3]: 0.2

IKLVFLWLLWPVTLA
Binding of serum 1a to linear peptides of protein M of SARS-CoV Urbani [1]: 0.7 | Binding of serum 1a to looped/cyclic peptides of protein M of SARS-CoV Urbani [1]: 0.7 | Binding of serum 1b to linear peptides of protein M of SARS-CoV Urbani [1]: 0.5 | Binding of serum 1b to looped/cyclic peptides of protein M of SARS-CoV Urbani [1]: 0.8 | Binding of serum 2 to linear peptides of protein M of SARS-CoV Urbani [1]: 0.7 | Binding of serum 2 to looped/cyclic peptides of protein M of SARS-CoV Urbani [1]: 0.6 | Binding of serum 6 to linear peptides of protein M of SARS-CoV Urbani [1]: 0.5 | Binding of serum 6 to looped/cyclic peptides of protein M of SARS-CoV Urbani [1]: 0.9 | Binding of serum 37 to linear peptides of protein M of SARS-CoV Urbani [1]: 0.6 | Binding of serum 37 to looped/cyclic peptides of protein M of SARS-CoV Urbani [1]: 0.8 | Binding of serum 62 to linear peptides of protein M of SARS-CoV Urbani [1]: 0.7 | Binding of serum 62 to looped/cyclic peptides of protein M of SARS-CoV Urbani [1]: 0.8 | Binding of serum London to linear peptides of protein M of SARS-CoV Urbani [1]: 0.6 | Binding of serum London to looped/cyclic peptides of protein M of SARS-CoV Urbani [1]: 0.3 | Binding of serum SARS-green to linear peptides of protein M of SARS-CoV Urbani [1]: 0.3 | Binding of serum SARS-green to looped/cyclic peptides of protein M of SARS-CoV Urbani [1]: 0.3 | Binding of serum SARS-yellow to linear peptides of protein M of SARS-CoV Urbani [1]: 0.1 | Binding of serum SARS-yellow to looped/cyclic peptides of protein M of SARS-CoV Urbani [1]: 0.5 | Binding of Control Serum Blood-Bank to Looped peptides of the protein M of SARS-CoV Urbani [2]: 0.9 | Binding of Control serum Blood-bank to linear peptides of the protein M of SARS-CoV Urbani [2]: 0.7 | Binding of Control serum LUMC to linear peptides of the protein M of SARS-CoV Urbani [2]: 0.4 | Binding of Control serum LUMC to looped peptides of the protein M of SARS-CoV Urbani [2]: 0.7 | Rabbit serum linear peptides [3]: 0.3 | Rabbit serum looped peptides [3]: 0.0

ILFLTLIVFTSCELY
Binding of serum 1a to linear peptides of protein X4 of SARS-CoV Urbani [1]: 0.7 | Binding of serum 1a to looped/cyclic peptides of protein X4 of SARS-CoV Urbani [1]: 0.7 | Binding of serum 1b to linear peptides of protein X4 of SARS-CoV Urbani [1]: 0.6 | Binding of serum 1b to looped/cyclic peptides of protein X4 of SARS-CoV Urbani [1]: 0.4 | Binding of serum 2 to linear peptides of protein X4 of SARS-CoV Urbani [1]: 0.5 | Binding of serum 2 to looped/cyclic peptides of protein X4 of SARS-CoV Urbani [1]: 0.7 | Binding of serum 6 to linear peptides of protein X4 of SARS-CoV Urbani [1]: 0.5 | Binding of serum 6 to looped/cyclic peptides of protein X4 of SARS-CoV Urbani [1]: 0.6 | Binding of serum 37 to linear peptides of protein X4 of SARS-CoV Urbani [1]: 0.7 | Binding of serum 37 to looped/cyclic peptides of protein X4 of SARS-CoV Urbani [1]: 0.7 | Binding of serum 62 to linear peptides of protein X4 of SARS-CoV Urbani [1]: 0.7 | Binding of serum 62 to looped/cyclic peptides of protein X4 of SARS-CoV Urbani [1]: 0.7 | Binding of serum London to linear peptides of protein X4 of SARS-CoV Urbani [1]: 0.6 | Binding of serum London to looped/cyclic peptides of protein X4 of SARS-CoV Urbani [1]: 0.3 | Binding of serum SARS-green to linear peptides of protein X4 of SARS-CoV Urbani [1]: 0.6 | Binding of serum SARS-green to looped/cyclic peptides of protein X4 of SARS-CoV Urbani [1]: 0.4 | Binding of serum SARS-yellow to linear peptides of protein X4 of SARS-CoV Urbani [1]: 0.4 | Binding of serum SARS-yellow to looped/cyclic peptides of protein X4 of SARS-CoV Urbani [1]: 0.6 | Binding of Control Serum Blood-Bank to Looped peptides [2]: 0.7 | Binding of Control serum Blood-bank to linear peptides [2]: 0.6 | Binding of Control serum LUMC to linear peptides [2]: 0.7 | Binding of Control serum LUMC to looped peptides [2]: 0.8 | Rabbit serum linear peptides [3]: 0.7 | Rabbit serum looped peptides [3]: 0.2
